# Literature values, collected in US20040063806A1, “Antimicrobial polyalphaolefin composition” (priority 2000, published 2004).
# Legend:
# Streptococcus pyogenes = Streptococcus pyogenes ATCC 21059, medium M-H
# Pityrosporum ovalae = Pityrosporum ovalae ATCC 14521, medium M
# Candida parapsylosis = conditions: origin A, medium SMA
# Brucella abortus = Brucella abortus NCTC 8226, medium BR.A.A.
# Brucella intermedia = conditions: origin A, medium BR.A.A.
# Trichophyton rubrum = conditions: origin A, medium SMA
# Shigella dysenteriae = Shigella dysenteriae NCTC 2249, medium NA
# Trichophyton cutaneum = conditions: origin A, medium SMA
# Streptococcus agalactiae = Streptococcus agalactiae NCTC 8181, medium BHI-A
# [1] = system: Streptococcus heamolyticus A; conditions: origin A, medium BHI-A
# [2] = system: Bacillus cereus var. mycoides; conditions: origin A, medium NA
# Microsporum canis = Microsporum canis ATCC 10214, medium SMA
# Lactobacillus fermenti = Lactobacillus fermenti ATCC 707, medium MACA
# Enterobacter sakazakii = Enterobacter sakazakii NCTC 8155, medium NA
# [3] = system: Lactobacillus delbrueckii; conditions: Lactobacillus delbrueckii ATCC 7830, medium MACA
# Neisseria catarrhalis = Neisseria catarrhalis NCTC 3622, medium BA
# Clostridium difficile = Clostridium difficile ATCC 9684, medium BHI-A
# Candida utilis = conditions: origin A, medium SMA
# Clostridium tetani = Clostridium tetani NCTC 9571, medium EA
# Staphylococcus hyicus = Staphylococcus hyicus NCTC 7944, medium BHI-A
smiles,measurement,setting,value
"Oc1cc(Cl)ccc1Oc1ccc(Cl)cc1Cl [IRGAGUARD B 1000, 2,4,4′-trichloro-2′-hydroxydiphenyl ether]",Microbiostatic effect,Streptococcus pyogenes,4.0 ppm
same,Microbiostatic effect,Pityrosporum ovalae,>1000 ppm
same,Microbiostatic effect,Candida parapsylosis,30 ppm
same,Microbiostatic effect,Brucella abortus,0.1 ppm
same,Microbiostatic effect,Brucella intermedia,0.1 ppm
same,Microbiostatic effect,Trichophyton rubrum,10 ppm
same,Microbiostatic effect,Shigella dysenteriae,0.1 ppm
same,Microbiostatic effect,Trichophyton cutaneum,10 ppm
same,Microbiostatic effect,Streptococcus agalactiae,3.0 ppm
same,Microbiostatic effect,[1],3.0 ppm
same,Microbiostatic effect,[2],3.0 ppm
same,Microbiostatic effect,Microsporum canis,3 ppm
same,Microbiostatic effect,Lactobacillus fermenti,33.0 ppm
same,Microbiostatic effect,Enterobacter sakazakii,0.3 ppm
same,Microbiostatic effect,[3],33.0 ppm
same,Microbiostatic effect,Neisseria catarrhalis,33.0 ppm
same,Microbiostatic effect,Clostridium difficile,5.0 ppm
same,Microbiostatic effect,Candida utilis,33 ppm
same,Microbiostatic effect,Clostridium tetani,3.0 ppm
same,Microbiostatic effect,Staphylococcus hyicus,0.03 ppm
